Reference: patent US20260130395A1, “Water Dispersible Botanical Compositions” (Aquila Black Limited, priority 2021, published 2026)

Test: Stability of cannabinoid compounds and Vitamin E components in Beverage 1 (AB White) by LCMSMS
Type: physicochemical
Details: for Stability of Plant-Derived Cannabinoid Compounds in AB White, 8° C.: AB White stored at 8° C.; for Stability of Plant-Derived Cannabinoid Compounds in AB White, 21-25° C.: AB White stored at 21-25° C.

What does the source list for `CCCCCc1cc(O)c(C/C=C(\C)CCC=C(C)C)c(O)c1` [CBG, cannabigerol]?
Stability of Plant-Derived Cannabinoid Compounds in AB White, 8° C. (0 days): 4.87 µg/mL; Stability of Plant-Derived Cannabinoid Compounds in AB White, 8° C. (1 days): 4.74 µg/mL; Stability of Plant-Derived Cannabinoid Compounds in AB White, 8° C. (2 days): 4.91 µg/mL; Stability of Plant-Derived Cannabinoid Compounds in AB White, 8° C. (3 days): 4.74 µg/mL; Stability of Plant-Derived Cannabinoid Compounds in AB White, 8° C. (5 days): 4.88 µg/mL; Stability of Plant-Derived Cannabinoid Compounds in AB White, 8° C. (8 days): 4.86 µg/mL; Stability of Plant-Derived Cannabinoid Compounds in AB White, 8° C. (9 days): 4.89 µg/mL; Stability of Plant-Derived Cannabinoid Compounds in AB White, 8° C. (10 days): 4.77 µg/mL; Stability of Plant-Derived Cannabinoid Compounds in AB White, 8° C. (11 days): 4.87 µg/mL; Stability of Plant-Derived Cannabinoid Compounds in AB White, 8° C. (12 days): 4.87 µg/mL; Stability of Plant-Derived Cannabinoid Compounds in AB White, 8° C. (15 days): 4.81 µg/mL; Stability of Plant-Derived Cannabinoid Compounds in AB White, 8° C. (16 days): 4.84 µg/mL; Stability of Plant-Derived Cannabinoid Compounds in AB White, 8° C. (17 days): 4.78 µg/mL; Stability of Plant-Derived Cannabinoid Compounds in AB White, 8° C. (18 days): 4.81 µg/mL; Stability of Plant-Derived Cannabinoid Compounds in AB White, 8° C. (19 days): 4.83 µg/mL; Stability of Plant-Derived Cannabinoid Compounds in AB White, 8° C. (22 days): 4.75 µg/mL; Stability of Plant-Derived Cannabinoid Compounds in AB White, 8° C. (23 days): 4.89 µg/mL; Stability of Plant-Derived Cannabinoid Compounds in AB White, 8° C. (24 days): 4.83 µg/mL; Stability of Plant-Derived Cannabinoid Compounds in AB White, 8° C. (25 days): 4.89 µg/mL; Stability of Plant-Derived Cannabinoid Compounds in AB White, 8° C. (26 days): 4.77 µg/mL; Stability of Plant-Derived Cannabinoid Compounds in AB White, 8° C. (29 days): 4.91 µg/mL; Stability of Plant-Derived Cannabinoid Compounds in AB White, 8° C. (30 days): 4.79 µg/mL; Stability of Plant-Derived Cannabinoid Compounds in AB White, 8° C. (60 days): 4.68 µg/mL; Stability of Plant-Derived Cannabinoid Compounds in AB White, 8° C. (90 days): 4.66 µg/mL; Stability of Plant-Derived Cannabinoid Compounds in AB White, 8° C. (120 days): 4.89 µg/mL; Stability of Plant-Derived Cannabinoid Compounds in AB White, 8° C. (150 days): 4.83 µg/mL; Stability of Plant-Derived Cannabinoid Compounds in AB White, 8° C. (180 days): 4.71 µg/mL; Stability of Plant-Derived Cannabinoid Compounds in AB White, 8° C. (210 days): 4.73 µg/mL; Stability of Plant-Derived Cannabinoid Compounds in AB White, 8° C. (240 days): 4.69 µg/mL; Stability of Plant-Derived Cannabinoid Compounds in AB White, 8° C. (270 days): 4.72 µg/mL; Stability of Plant-Derived Cannabinoid Compounds in AB White, 8° C. (300 days): 4.74 µg/mL; Stability of Plant-Derived Cannabinoid Compounds in AB White, 8° C. (330 days): 4.69 µg/mL; Stability of Plant-Derived Cannabinoid Compounds in AB White, 8° C. (360 days): 4.66 µg/mL; Stability of Plant-Derived Cannabinoid Compounds in AB White, 8° C. (390 days): 4.68 µg/mL; Stability of Plant-Derived Cannabinoid Compounds in AB White, 8° C. (420 days): 4.66 µg/mL; Stability of Plant-Derived Cannabinoid Compounds in AB White, 8° C. (450 days): 4.68 µg/mL; Stability of Plant-Derived Cannabinoid Compounds in AB White, 8° C. (480 days): 4.64 µg/mL; Stability of Plant-Derived Cannabinoid Compounds in AB White, 8° C. (510 days): 4.49 µg/mL; Stability of Plant-Derived Cannabinoid Compounds in AB White, 8° C. (540 days): 4.53 µg/mL; Stability of Plant-Derived Cannabinoid Compounds in AB White, 8° C. (570 days): 4.46 µg/mL; Stability of Plant-Derived Cannabinoid Compounds in AB White, 21-25° C. (0 days): 4.87 µg/mL; Stability of Plant-Derived Cannabinoid Compounds in AB White, 21-25° C. (1 days): 4.73 µg/mL; Stability of Plant-Derived Cannabinoid Compounds in AB White, 21-25° C. (2 days): 4.72 µg/mL; Stability of Plant-Derived Cannabinoid Compounds in AB White, 21-25° C. (3 days): 4.75 µg/mL; Stability of Plant-Derived Cannabinoid Compounds in AB White, 21-25° C. (5 days): 4.89 µg/mL; Stability of Plant-Derived Cannabinoid Compounds in AB White, 21-25° C. (8 days): 4.90 µg/mL; Stability of Plant-Derived Cannabinoid Compounds in AB White, 21-25° C. (9 days): 4.79 µg/mL; Stability of Plant-Derived Cannabinoid Compounds in AB White, 21-25° C. (10 days): 4.68 µg/mL; Stability of Plant-Derived Cannabinoid Compounds in AB White, 21-25° C. (11 days): 4.74 µg/mL; Stability of Plant-Derived Cannabinoid Compounds in AB White, 21-25° C. (12 days): 4.88 µg/mL; Stability of Plant-Derived Cannabinoid Compounds in AB White, 21-25° C. (15 days): 4.87 µg/mL; Stability of Plant-Derived Cannabinoid Compounds in AB White, 21-25° C. (16 days): 4.80 µg/mL; Stability of Plant-Derived Cannabinoid Compounds in AB White, 21-25° C. (17 days): 4.80 µg/mL; Stability of Plant-Derived Cannabinoid Compounds in AB White, 21-25° C. (18 days): 4.72 µg/mL; Stability of Plant-Derived Cannabinoid Compounds in AB White, 21-25° C. (19 days): 4.68 µg/mL; Stability of Plant-Derived Cannabinoid Compounds in AB White, 21-25° C. (22 days): 4.68 µg/mL; Stability of Plant-Derived Cannabinoid Compounds in AB White, 21-25° C. (23 days): 4.85 µg/mL; Stability of Plant-Derived Cannabinoid Compounds in AB White, 21-25° C. (24 days): 4.80 µg/mL; Stability of Plant-Derived Cannabinoid Compounds in AB White, 21-25° C. (25 days): 4.86 µg/mL; Stability of Plant-Derived Cannabinoid Compounds in AB White, 21-25° C. (26 days): 4.78 µg/mL; Stability of Plant-Derived Cannabinoid Compounds in AB White, 21-25° C. (29 days): 4.76 µg/mL; Stability of Plant-Derived Cannabinoid Compounds in AB White, 21-25° C. (30 days): 4.73 µg/mL; Stability of Plant-Derived Cannabinoid Compounds in AB White, 21-25° C. (60 days): 4.83 µg/mL; Stability of Plant-Derived Cannabinoid Compounds in AB White, 21-25° C. (90 days): 4.65 µg/mL; Stability of Plant-Derived Cannabinoid Compounds in AB White, 21-25° C. (120 days): 4.59 µg/mL; Stability of Plant-Derived Cannabinoid Compounds in AB White, 21-25° C. (150 days): 4.63 µg/mL; Stability of Plant-Derived Cannabinoid Compounds in AB White, 21-25° C. (180 days): 4.79 µg/mL; Stability of Plant-Derived Cannabinoid Compounds in AB White, 21-25° C. (210 days): 4.75 µg/mL; Stability of Plant-Derived Cannabinoid Compounds in AB White, 21-25° C. (240 days): 4.79 µg/mL; Stability of Plant-Derived Cannabinoid Compounds in AB White, 21-25° C. (270 days): 4.62 µg/mL; Stability of Plant-Derived Cannabinoid Compounds in AB White, 21-25° C. (300 days): 4.67 µg/mL; Stability of Plant-Derived Cannabinoid Compounds in AB White, 21-25° C. (330 days): 4.71 µg/mL; Stability of Plant-Derived Cannabinoid Compounds in AB White, 21-25° C. (360 days): 4.69 µg/mL; Stability of Plant-Derived Cannabinoid Compounds in AB White, 21-25° C. (390 days): 4.70 µg/mL; Stability of Plant-Derived Cannabinoid Compounds in AB White, 21-25° C. (420 days): 4.72 µg/mL; Stability of Plant-Derived Cannabinoid Compounds in AB White, 21-25° C. (450 days): 4.73 µg/mL; Stability of Plant-Derived Cannabinoid Compounds in AB White, 21-25° C. (480 days): 4.46 µg/mL; Stability of Plant-Derived Cannabinoid Compounds in AB White, 21-25° C. (510 days): 4.51 µg/mL; Stability of Plant-Derived Cannabinoid Compounds in AB White, 21-25° C. (540 days): 4.48 µg/mL; Stability of Plant-Derived Cannabinoid Compounds in AB White, 21-25° C. (570 days): 4.47 µg/mL
